According to patent US9556437B2, “FAT1 gene in cancer and inflammation” (DEPARTMENT OF BIOTECHNOLOGY (DBT), priority 2012, dated 2017):

Key:
[1] = test system: U87MG cells; test: In vitro Scratch Assay of cell migration; format: cell-based, human
Protocol: FIGS. 14A to 14D: Effect of NS-398 and FAT1 knockdown simultaneously on Cell Migration by In-vitro Scratch Assay. The in vitro Scratch Assay was performed at 72 hours after culturing cells as follows: At Day 0, 5,000 U87MG cells are plated per well of a 96 well plate. […] (C) Assay of cell migration by the Modified Boyden Chamber Assay under conditions of normoxia and hypoxia. (D) Quantitation of data from (C).
The Scratch Assay is performed at 72 hours after treatment. A scratch is made on the culture surface using a sterile 10 μl tip and cells were allowed to grow. Images were captured after every 3 hrs to monitor the closure of the wound in the culture surface for next 24 hrs.

[2] = test system: colon, esophageal and pancreatic carcinoma cell lines; conditions: Tsujii 1998, Zimmermann 1999, Molina 1999; cited from earlier work
[3] = test system: colorectal and lung carcinoma cell lines; conditions: Elder 1997, Liu 1998; cited from earlier work
[4] = test system: COX-2 promoter; test: COX-2 promoter luciferase assay; format: cell-based, human; conditions: U87MG
Protocol: AP-1 and COX-2 Promoter Luciferase Assay: U87MG cells (40000 cells/well) were plated in 6-well plates in triplicate on day zero. On day 1, cells were transfected with siFAT1 and siControl. On day 2 cells were transiently transfected with 4×AP-1-luciferase reporter plasmids as described previously. Cells were transfected with 1 μg of AP-17× luciferase reporter plasmid, along with 50 ng of pRL-TK (Renilla luciferase) control plasmid using LIPOFECTAMINE2000 as the transfection reagent. After 48 hrs, the cells were lysed by 1× passive-lysis-buffer (Promega, Madison, Wis., USA) and assayed for luciferase activity as previously described. For COX-2 luciferase assay U87MG cells were transfected with siFAT1 and siControl on day 1 and after 4 hrs incubation were treated with 10 μM SR11302. On day2 cells were transiently transfected with COX-2 reporter plasmid and again treated with 10 μM SR11302. After 48 hrs, the cells were assayed for luciferase activity.

[5] = test system: U87MG cells; test: Toxicity of SR11302 to cells; format: cell-based, human; conditions: 10 μM
Protocol: FIG. 11: Dose response curve of SR11302; U87MG cells were treated with increasing concentration of SR11302 from 0.1 μM to 10 μM.

| Structure (SMILES) | inhibition of cell migration ([1]; Scratch Assay at 72 hours after treatment) | effect on migration under hypoxic versus normoxic culture ([1]; hypoxic conditions) | migration ability of cells ([1]; scratch and modified Boyden chamber assays, normoxic or hypoxic conditions (FIG. 14)) | growth of carcinoma cell lines [2] | apoptosis [3] | proliferation [3] | dose response of COX-2 luciferase activity ([4]; 0.1 μM to 10 μM) | decrease in COX-2 luciferase activity ([4]; vs siControl+DMSO, SR11302 10 μM, 48 hrs) | toxicity to the cells [5] |
| --- | --- | --- | --- | --- | --- | --- | --- | --- | --- |
| CS(=O)(=O)Nc1ccc([N+](=O)[O-])cc1OC1CCCCC1 [NS398] | about 70% | more pronounced | reduced | growth-inhibitory effects | induce apoptosis | inhibit proliferation | – | – | – |
| CC1=C(/C=C/C(=C/C=C/C(C)=C/C(=O)O)c2ccc(C)cc2)C(C)(C)CCC1 [SR11302] | – | – | – | – | – | – | dose dependent decrease | 5 fold | No toxicity |
